Data on 4 molecules can be found in patent US20190032014A1, “USING MICROBIOTA METABOLITES TO DIFFERENTIATE NAÏVE T-CELLS AND RELATED METHODS TO INDUCE OR PREVENT INFLAMMATORY CONDITIONS” (THE TEXAS A&M UNIVERSITY SYSTEM, priority 2016, published 2019).

For assay [1], the system named is CD4+ CD25− naïve T cells. Put plainly: In vitro naïve T cell differentiation, Th17-skew (IL-17+ by FACS). Type of assay: cell-based, C57BL/6 mice. Conditions: Th17 skewing conditions, vs DMF control. Here is the method: (§1) Mesenteric lymph node (MLN) and spleen are harvested from WT or FOXP3^EGFP C57Bl/6 mice and homogenized. Spleen tissue is subjected to red blood cell lysis and pooled into a single cell suspension for counting. Counted cells are resuspended in sterile FACS buffer (PBS++ with 05% bovine serum albumin) at a concentration of ˜5×10^7 cells/mL and stained for 45 minutes at 4° C. with anti-CD4 and anti-CD25 fluorophore-conjugated monoclonal antibodies (mAb). After two washes, the stained cells are resuspended at ˜6×10^6 cells/mL in FACS buffer and immediately sorted. […] TDMMs are solubilized in DMF at 2 M and used at desired concentrations (e.g., 0.01, 0.1, 0.5 and 1.0 mM) in growth media; DMF in growth media (0.05%) is used as a solvent control.
(§2) The % of Treg or Th17 cells are determined based on the expression of signature transcription factors, FoxP3 and Rorγt, respectively. In addition, signature cytokine markers for Treg and Th17, TGFβ or IL-17, respectively, among others are measured using intracellular cytokine staining. Since it is possible that a cell could be positive for FoxP3 and still express some IL-17, the final % of Tregs are determined as the cell population that is FoxP3+TGFβ+ Rorγt-IL-17−. Similarly, the % of Th17 cells are determined as the population that is FoxP3-TGFβ− Rorγt+IL-17+.
(§3) CD4+ CD25− T cells were isolated to high purity (>98%) from the pooled spleen and mesenteric lymph nodes of C57BL/6 mice (Jackson Labs) with a BD FACS Aria II flow cytometer. Fc Block (BD), αCD4-efluor450 (eBioscience clone GK1.5) and αCD25-PECy7 (eBioscience clone PC61.5) antibodies were used for staining before sorting.
(§4) For Th1-skew: 5 ng/mL IL-12 (Peprotech cat. #210-12) and 10 µg/mL αIL-4 (BioXCell clone 11B11) were added to culture. For Th2-skew: 10 ng/mL IL-4 (Peprotech) and 10 μg/mL αIFN-γ (BioXCell clone R4-6A2) were added to culture. For Th17-skew: 10 ng/mL IL-6 (Peprotech), 5 ng/mL IL-23 (R&D), 0.5 ng/mL TGF-β (Peprotech), 10 μg/mL al-4 (BioXCell clone 11B11), and 10 μg/mL αIFN-γ (BioXCell clone R4-6A2) were added to culture. For Treg-skew: 2 ng/mL TGF-β (Peprotech) and 100 U/mL IL-2 (Roche) were added to culture. Sodium Propionate, sodium acetate, sodium butyrate and sodium chloride (all from Sigma-Aldrich) were solubilized in media and added to culture. Indole was solubilized in DMF (both from Sigma-Aldrich) at 2M and brought to final concentration in media. MGCD0103 (Selleck Chemicals) was solubilized in DMF at 2 mM and brought to final concentration in media. A 0.05% DMF solvent control was used for all experiments.

The subject of assay [2] is CD4+ CD25− naïve T cells. Put plainly: In vitro naïve T cell differentiation, Treg-skew (FoxP3+ by FACS). Type of assay: cell-based, C57BL/6 mice. Conditions: Treg skewing conditions, vs DMF control. Here is the method:
as §1, §2, §3, §4
(Flow cytometry measures light scatter and fluorescence of single cells or particles in a stream.)

For assay [3], the system named is CD4+ CD25− naïve T cells. Briefly: In vitro naïve T cell differentiation, Th1-skew (IFN-γ+). It counts as cell-based, C57BL/6 mice. To be noted: Th1 skewing conditions; vs solvent control; listed as 5-HI. How it is done: When naïve CD4+ CD25− cells were cultured 72 hours in αCD3/28 coated wells with Th0-, Th1- or Th2-skew cytokines and indole or solvent control, followed by stimulation with PMA, Ionomycin and Golgi Plug for the last 5 hours of culture, no effect on the % of Th1 and Th2 cells was observed (in contrast to the significant effect that indole has on Treg and Th17 cells; see FIGS. 2A and 2B).
as §3, §4

The subject of assay [4] is wild-type or AhR KO T cells. Put plainly: T cell differentiation in wild-type vs AhR KO T cells. It counts as cell-based, mice. Here is the method: The aryl hydrocarbon receptor (AhR) is implicated in the differentiation of Treg and Th17 cells. The role of AhR was assessed with respect to indole's effect on Treg augmentation. Wild-type and AhR KO naïve T-cells were conditioned with increasing amounts of indole and then assessed for % of FoxP3 expression. […] Additionally, the role of AhR was assessed with respect to indole's effect on Th17 inhibition.
The AhR knockout was further investigated for iTreg homing markers, CD62L and α4β7, as described above.
Next, the AhR knockout was further investigated for the impact of AhR on 5-HI-mediated T cell differentiation.

The test system of assay [5] is naïve T cells obtained from humans. Put plainly: Skewing of naïve T cells obtained from humans. It counts as cell-based.
For a further assay, the system named is Th17 transfer colitis. Briefly: Th17 transfer colitis murine model. Type of assay: in vivo, Rag-null mice. Here is the method:
Finally, the presentation describes a study of the effects of an indole-induced iTreg skew on the course of colitis in a Th17 transfer colitis murine model. […] Briefly, naïve T-cells (CD4+CD25−) were cultured in vitro with cytokines to skew function towards a Th17 phenotype, in the presence of indole or 5-HI, or not. The skewed cultures were transferred to Rag-null mice (lack T- and B-lymphocytes); control mice received no T-cells. Mice were monitored for weight loss (as a measure of inflammation) over several weeks and assessed at indicated timepoints for T-cell phenotype.
The body weight of the mice was monitored from the time of cell transfer to the end point of day 49. […] Next, the Treg, Th17, and Th1 differentiation was assessed in cells obtained from the mesenteric lymph nodes (MLN) of mice administered directly with indole, 5-HI and control. These cells were determined/assayed by FACS for phenotype directly ex vivo from mice that were treated as in FIG. 28.

Another assay concerns IL-6 receptor / pSTAT3. Briefly: IL-6 receptor levels and STAT3 activity. To be noted: vs control. It counts as cell-based. How it is done: Indole and 5-HI were assessed for impact on TGF-β receptor expression and SMAD2/3 activity. […] Indole and 5-HI were also assessed for impact on IL-6 receptor levels and subsequent STAT3 activity.
Assay [6] relates to CD4+ CD25− naïve T cells. Put plainly: In vitro naïve T cell differentiation, Th17-skew (IL-17+ by FACS). Conditions: low and high titrations of IL-6. Type of assay: cell-based, C57BL/6 mice.
The test system of another assay is naïve T cells. To be noted: Arpaia et al. 2013; cited from earlier work.
The mark [7] stands for this setting: MLN, D15 and D45, by the end point.

Entries after “also recorded” stand apart in the source; their conditions may differ.

For the molecule `O=C(O)C(=O)Cc1c[nH]c2ccccc12` [Indole-3-pyruvate], the “effect on % IL-17+ cells / Th17 differentiation” value in the assay on CD4+ CD25− naïve T cells [1] is on record as “modest (but significant) decrease in Th17”. In the assay on CD4+ CD25− naïve T cells [2], the “effect on % FoxP3+ cells / Treg differentiation” value is listed as “increasing Treg cells”.

In the case of `Oc1ccc2[nH]ccc2c1` [5-hydroxyindole], the “effect on % Th1 cells (IFN-γ+)” value in the assay on CD4+ CD25− naïve T cells [3] was “promotes Th1 and Th17 differentiation; also recorded: increase in % IFN-γ+ cells”. In addition, the “effect on % IL-17+ cells / Th17 differentiation” value was “increases Th17 cells” in the assay with CD4+ CD25− naïve T cells [1]; “pro-Th17 response; also recorded: promotes Th1 and Th17 differentiation; also recorded: significant increase in % IL-17+ cells” with CD4+ CD25− naïve T cells [1] (listed as 5-HI). Moreover, the “% IL-17+ in wild-type vs AhR KO T cells” value in [4] is listed as “significantly increased over wild-type cells”. Further, the “% of IFN-γ+ T cells in AhR KO vs wild-type T cells” value in assay [4] (Th1 skew) is listed as “not significantly different than in wild-type cells”. Moreover, the “FoxP3+ % in wild-type vs AhR KO T cells” value in assay [4] (increasing amounts of test substance) was “decreases similarly in wild-type and AhR KO cells”. The “skewing effects on Tregs and Th17 cells in human cells” value in assay [5] was “recapitulated on naïve T cells obtained from humans”. For the same molecule, the “Th1 differentiation in vivo (% INF-γ+ T cells, Th1/Treg balance, MLN)” value in the assay on Th17 transfer colitis (setting [7]) was “increases the number of Th17 differentiation in vivo”. The “Th17 differentiation in vivo (% IL-17+ T cells, Th17/Treg balance, MLN)” value with Th17 transfer colitis (setting [7]) is on record as “increases the number of Th17 differentiation in vivo”. Besides, the “weight change (% from starting weight)” value with Th17 transfer colitis (mice receiving conditioned Th17 T cells, around day 43, end point day 49) is on record as “declined precipitously”. Also, the “Th17 transfer colitis in vivo (overall)” value in the assay on Th17 transfer colitis (mouse, in vivo) was “exacerbates Th17 transfer colitis in vivo”. The “% pSTAT3+ cells / IL-6 induced stat3” value with IL-6 receptor / pSTAT3 is reported as “augments the IL-6 induced stat3 expression”. For the same molecule, the “% IL-17+ cells with titrations of IL-6” value in the assay with CD4+ CD25− naïve T cells [6] is on record as “increased the % IL-17+ cells”. Also, the “effect on % FoxP3+ cells / Treg differentiation” value in the assay with CD4+ CD25− naïve T cells [2] is reported as “decreasing the Treg population”; in the assay with CD4+ CD25− naïve T cells [2] (listed as 5-HI) it was “inhibits a Treg response; also recorded: strongly inhibits Treg differentiation; also recorded: decreased the % FoxP3+ cells”.

`CCC(=O)O` [propionate, reference compound]: the “differentiation of naïve T cells to Treg cells” value in the assay on naïve T cells was “promoted differentiation of naïve T cells to Treg cells”. Moreover, in the assay on CD4+ CD25− naïve T cells [1], the “effect on % IL-17+ cells / Th17 differentiation” value is “increases Treg and Th17 development”. In addition, the “effect on % FoxP3+ cells / Treg differentiation” value in the assay with CD4+ CD25− naïve T cells [2] was “increases Treg and Th17 development”.

As for `CC(=O)O` [acetate, reference compound], the “effect on % IL-17+ cells / Th17 differentiation” value in the assay with CD4+ CD25− naïve T cells [1] is “increases Th17 development”. In addition, in the assay with CD4+ CD25− naïve T cells [2], the “effect on % FoxP3+ cells / Treg differentiation” value is “no effect on Treg development”.
